Assays:
MCF-7 cells = experiment: MTT in vitro cytotoxicity assay, MCF-7; format: cell-based; details: Homo sapiens, MCF7, 48 h incubation, mean ± SEM
Description: (§1) The promyelocytic leukemia HL-60 and breast cancer adenocarcinoma MCF-7 cell lines were purchased from the European Collection of Cell Cultures (ECACC). Leukemia cells were cultured in RPMI 1640 plus GlutaMax I medium (Gibco/Life Technologies, Carlsbad, CA, USA). MCF-7 cells were maintained in Minimum Essential Medium Eagle (Sigma Aldrich, St. Louis, MO, USA) and supplemented with 2 mM glutamine and men non-essential amino acid solution (Sigma Aldrich, St. Louis, MO, USA). Both media were supplemented with 10% heat-inactivated fetal bovine serum (Biological Industries, Beit-Haemek, Israel) and antibiotics (100 U/mL penicillin and 100 μg/mL streptomycin) (Sigma-Aldrich, St. Louis, MO, USA). Human umbilical vein endothelial cells (HUVECs) were purchased from the American Type Culture Collection (ATCC). Cells were cultured using EGM-2 Endothelial Medium BulletKit purchased from Lonza (Lonza, Walkersville, MD, USA). Cells were maintained at 37 °C in 5% CO2 atmosphere and grown until 80% confluent.
(§2) The tested compounds were dissolved in sterile dimethyl sulfoxide (DMSO) and further diluted with culture medium. The final concentration of DMSO in cell cultures was less than 0.1% v/v. Controls without and with 0.1% DMSO were performed in each experiment. At the used concentration, DMSO had no effect on the observed parameters.
(§3) The MTT (3-(4,5-dimethylthiazol-2-yl)-2,5-diphenyltetrazolium bromide) assay, which measures the activity of cellular dehydrogenases, was performed according to the Mosmann method. Exponentially growing cells were seeded into 24-well plates at a density of 8 × 10^4 cells/mL and left to grow for 24 h. After 24 h or 48 h of incubation with various concentrations of the tested compounds (dissolved in DMSO and diluted with complete culture medium), cells were incubated with 0.1 mL of MTT solution (5 mg/mL in phosphate buffered saline) for 1.5 h. The metabolically active cells reduced MTT to blue formazan crystals. The plates were centrifuged, and the supernatant was discarded. DMSO (1 mL) was added to each well to dissolve the crystals, whose absorbance was measured at 560 nm using FlexStation 3 Multi-Mode Microplate Reader (Molecular Devices, LLC, San Jose, CA, USA). The untreated cells were used as control. The IC50 values were calculated from the concentration–response curves. The data were expressed as mean ± SEM of three independent experiments.

HUVEC cells = experiment: MTT in vitro cytotoxicity assay, HUVEC (normal cells); format: cell-based, human; details: Homo sapiens, HUVEC, 48 h incubation, mean ± SEM
Description: as §1, §2, §3

HL-60 cells [1] = experiment: Cell proliferation by BrdU incorporation, flow cytometry; format: cell-based; details: 1.8 µM
Description: (§4) To evaluate the anticancer potential of 5a, the ability of this compound to inhibit cell proliferation, induce apoptotic cell death, and generate DNA damage was examined by flow cytometry using the ‘Apoptosis, DNA Damage, and Cell Proliferation Kit’ (BD Bioscience). After 24 h treatment with 5a in increasing concentrations, HL-60 cells were exposed to bromodeoxyuridine (BrdU) for additional 8 h. Then, the cells were simultaneously stained with fluorochrome-labeled anti-BrdU, anti-cleaved PARP (Asp214) and anti-H2AX (pS139).
BrdU is an analog of thymidine, and its incorporation into DNA was used as an index of cell proliferation. […] At 1.8 µM concentration, this analog caused a 2.2-fold decrease in BrdU incorporation (Figure 4a).
Cell proliferation, DNA damage, and apoptotic cell death were determined using Apoptosis, DNA Damage, and Cell Proliferation Kit (BD Bioscience, San Jose, CA, USA), according to the manufacturer protocol. Briefly, HL-60 cells were seeded in 6-well plates (4.0 × 10^5 cells/mL) in 2 mL of growth medium and treated with 5a for 24 h. […] Next, the cells were collected by centrifugation (300× g, 5 min), counted, fixed, and permeabilized according to the manufacturer’s instructions. […] After washing, DNA staining with DAPI (1 µg/mL of the staining buffer) was performed, and the cells were analyzed by flow cytometry using CytoFLEX (Beckman Coulter, Inc., Brea, CA, USA).

HL-60 cells [2] = experiment: Apoptosis by cleaved PARP (Asp214) staining, flow cytometry; format: cell-based; details: 1.8 µM, 24 h, Figure 3b
Description: as §4
To check whether the cytotoxic effect of 5a was associated with the induction of apoptosis, the pro-apoptotic activity of this compound was investigated. Apoptosis regulation is triggered by the activation of caspases. Caspase-3, an effector caspase, cleaves a number of vital proteins, leading to cell death. The activity of caspase-3 was assessed by flow cytometry using fluorochrome-labeled antibodies recognizing 89 kDa-cleaved PARP fragments released from PARP by caspase-3 in the executive stage of apoptosis.
(§5) Cell proliferation, DNA damage, and apoptotic cell death were determined using Apoptosis, DNA Damage, and Cell Proliferation Kit (BD Bioscience, San Jose, CA, USA), according to the manufacturer protocol. Briefly, HL-60 cells were seeded in 6-well plates (4.0 × 10^5 cells/mL) in 2 mL of growth medium and treated with 5a for 24 h. Afterwards, the bromodeoxyuridine (BrdU, 10 µM) was added and the cells were incubated for additional 8 h. Next, the cells were collected by centrifugation (300× g, 5 min), counted, fixed, and permeabilized according to the manufacturer’s instructions. The cells were incubated with DNase (300 µg/mL in PBS) for 1 h at 37 °C and then simultaneously stained with fluorochrome-labeled anti-BrdU, H2AX (pS139), and cleaved PARP (Asp214) antibodies, for 20 min at room temperature. After washing, DNA staining with DAPI (1 µg/mL of the staining buffer) was performed, and the cells were analyzed by flow cytometry using CytoFLEX (Beckman Coulter, Inc., Brea, CA, USA).

HL-60 cells [3] = experiment: DNA damage by H2AX (pS139) staining, flow cytometry; format: cell-based, human; details: 24 h; for increase of phosphorylated H2AX level: vs control
Description: as §4
It is well documented that apoptosis induced by many anticancer drugs may be a consequence of DNA damage. Chemical genotoxins that target DNA can inhibit DNA replication, which leads to the collapse of replication forks and the formation of DNA double strand breaks (DSBs). The generation of DNA damage was evaluated using anti-H2AX (pS139) antibodies directed against the phosphorylated form of human H2AX protein at the pS139 residue that is considered to be a biomarker for DNA DSBs. The treatment of HL-60 cells with 5a increased the levels of phosphorylated H2AX by 4.7- and 7.8-fold (to 1.35 µM and 1.9 µM, respectively), indicating the dose-dependent genotoxic effect of the tested compound (Figure 4c).
as §5

In the case of C=C1C(=O)c2ccccc2N(S(=O)(=O)c2ccccc2)C1CC (stereo not shown) [Compound 5a, 2-Ethyl-3-methylidene-1-(phenylsulfonyl)-2,3-dihydroquinolin-4(1H)-one], the IC50 (MCF-7 cells) is reported as 2.74 ± 0.07 µM, the IC50 (HUVEC cells) is reported as 1.87 ± 0.02 µM and the “BrdU positive cells (representative plot)” value (HL-60 cells [1]; 24 h, Figure 3a) is reported as 17.5%. For the same compound, the “decrease in BrdU incorporation” value (HL-60 cells [1]; 24 h treatment then BrdU 8 h, vs control) was 2.2 fold, the “Q3: H2AX (pS139) and cleaved PARP negative cells (representative plot)” value (HL-60 cells [2]) was 66.8% and the “Q4: cleaved PARP positive, H2AX (pS139) negative cells (representative plot)” value (HL-60 cells [2]) was 15.0%. The “increase of phosphorylated H2AX level” value (HL-60 cells [3]; 1.35 µM) was 4.7 fold, the “Q1: H2AX (pS139) positive, cleaved PARP negative cells (representative plot)” value (HL-60 cells [3]; 1.8 µM, Figure 3b) was 5.0% and the “Q2: H2AX (pS139) and cleaved PARP positive cells (representative plot)” value (HL-60 cells [3]; 1.8 µM, Figure 3b) was 13.2%. For the same compound, the “increase of phosphorylated H2AX level” value (HL-60 cells [3]; 1.9 µM) was 7.8 fold.

Source: PMC9181899, “Synthesis and Anticancer Properties of New 3-Methylidene-1-sulfonyl-2,3-dihydroquinolin-4(1H)-ones” (Molecules, 2022)
